Experimental data reported in paper PMC10671074, “Tumor Regression upon Intratumoral and Subcutaneous Dosing of the STING Agonist ALG-031048 in Mouse Efficacy Models” (International Journal of Molecular Sciences, 2023).
Like-named read-outs stand apart in the source and are kept apart here. Marks after values point to notes of the source that are not given here.

How the values were obtained:
MC38-hPD-L1 tumors = experiment: MC38-hPD-L1 mouse colon carcinoma model; format: in vivo; settings: 5 mg/kg IP, BIW (4×)
From the text: Female C57/BL6 mice (Shanghai Lingchang Biotechnology Co., Ltd., Shanghai, China) were 5 to 8 weeks old with a body weight > 16 g at the time of inoculation. Animals were housed and fed as described above.
After inoculation with tumor cells, the animals were checked daily for morbidity and mortality. During routine monitoring, the animals were checked for any effects of tumor growth or test articles on behavior such as mobility, food and water consumption, body weight gain/loss (body weights were measured twice per week after randomization), eye/hair matting, and any other abnormalities. Tumor volumes were measured and calculated as described above.
Each group consisted of 10 animals. The control group was administered 5 mg/kg isotype control antibody in a volume of 10 μL/g of IP, BIW for 2.5 weeks, 5 doses total. The atezolizumab-treated group was administered 5 mg/kg in a volume of 10 μL/g of IP, BIW for 2.5 weeks, 5 doses total. […] Dosing started when average tumor volumes were 70 mm^3.

[1] = early clinical trial, patients; cited from earlier work
[2] = Liver microsomal stability, human; format: in vitro ADME; settings: pH 7.4, 0.5 mg/mL human liver microsomes, 37 °C, read-out: Liver Microsome t½, Human
Experimental: (§1) The liver microsomal stability assay was carried out in 96-well microtiter plates. The test compounds at 5 µM and the reference compound (verapamil) at 1 µM final concentration were incubated separately at 37 °C with 0.5 mg/mL liver microsomes, with or without 1 mM NADPH in 100 mM potassium phosphate buffer, pH 7.4 with 3.3 mM MgCl2. […] At each of the time points (0, 15, 30, and 60 min), the enzymatic reaction was terminated with the addition of 150 μL of quenching solution (100% acetonitrile, 0.1% formic acid, and the internal standard), and subsequently the mixtures were vortexed vigorously for 20 min and centrifuged at 4000 rpm at 10 °C. The supernatants (80 µL) were transferred to a clean 96-well plate and analyzed via LC/MS/MS. The peak area ratios of each test compound over the internal standard were plotted against incubation time, and the t½ was calculated from the curve assuming first-order kinetics.

[3] = tested on: primary human immature dendritic cells; experiment: Activation of primary human immature dendritic cells (CD83/CD86 flow cytometry); format: cell-based; settings: for EC50: iDCs, 72 h after stimulation; for Surface expression of CD86 and CD83 (in words): iDCs and, to a lesser degree, monocytes, 24 and 72 h
From the text: Frozen human PBMCs (100 × 10^6 cells) were obtained from Stem Cell Technologies (Kent, WA, USA). Monocytes were purified from PBMCs using a CD14^+ pan-monocyte-negative isolation kit and an LS column (Miltenyi Biotec, Bergisch Gladbach, Germany). Magnetically labeled non-target cells were depleted by retaining them within a MACS column in the magnetic field of a MACS Separator, while highly purified unlabeled CD1 D16^− cells were collected and used to generate dendritic cells. To obtain immature monocyte-derived dendritic cells (iMDDCs), enriched monocytes were cultured in Mo-DC differentiation medium (Miltenyi Biotec) supplemented with human IL-4 (250 IU/mL, Miltenyi Biotec) and human GM-CSF (800 IU/mL, Miltenyi Biotec) at 37 °C in a T-150 flask in a 5% CO2 humidified incubator for 5 days; fresh media was replenished every 2–3 days.
[…] An aliquot of iMDDCs was also cultured in maturation media for 24–48 h and used as a control containing RPMI 1640, 10% FBS, 2 mM L-glutamine, and human TNF-α (6000 IU/mL, Miltenyi Biotec). The supernatant from the plate was frozen to assess cytokine production, and cells were analyzed via flow cytometry.
Cells were incubated with phosphate-buffered saline (PBS) containing 2% FBS and 2 mM of EDTA (FACS buffer) supplemented with 2 mg/mL of normal human IgG on ice for 15 min to block Fc receptors. The cell suspension was then incubated with a predetermined optimal concentration of the appropriate fluorescent dye-labeled monoclonal antibodies (mAbs) against human cell surface markers on ice for 30 min. The fluorescent dye-labeled mAbs against human cell surface molecules included anti-CD209, anti-CD14, anti-CD11c, anti-CD40, anti-HLA-DR, anti-CD86, and anti-CD83 (BD Biosciences, Franklin Lakes, NJ, USA or BioLegend, San Diego, CA, USA). In addition, a fixable live/dead stain (Thermo Fisher Scientific) at a dilution of 1:1000 was added to exclude dead cells. After several washes with FACS buffer, cells were resuspended in FACS buffer and analyzed on an Attune Nxt flow cytometer (Thermo Fisher Scientific) with FlowJo v10 software (BD Biosciences). An aliquot of the cells to be analyzed served as controls by using “fluorescent minus-one” to establish gates and determine the frequency of positively stained cells. Ultra-comp beads (Thermo Fisher Scientific) were used as single-stained controls to set up compensation on the flow cytometer.

subcutaneous CT26 tumors = experiment: CT26 mouse colon carcinoma model; settings: Table 2 study, 3 × q3d; for Median Time to Endpoint: vehicle 19.0
[4] = Liver microsomal stability, mouse; format: in vitro ADME; settings: pH 7.4, 0.5 mg/mL mouse liver microsomes, 37 °C, read-out: Liver Microsome t½, Mouse
Experimental: as §1

primary human monocytes = experiment: Activation of primary human monocytes (CD83/CD86 flow cytometry); format: cell-based; settings: Monocyte, 24 h after stimulation
From the text: Frozen human PBMCs (100 × 10^6 cells) were obtained from Stem Cell Technologies (Kent, WA, USA). Monocytes were purified from PBMCs using a CD14^+ pan-monocyte-negative isolation kit and an LS column (Miltenyi Biotec, Bergisch Gladbach, Germany). Magnetically labeled non-target cells were depleted by retaining them within a MACS column in the magnetic field of a MACS Separator, while highly purified unlabeled CD1 D16^− cells were collected and used to generate dendritic cells.
The cell suspension was then incubated with a predetermined optimal concentration of the appropriate fluorescent dye-labeled monoclonal antibodies (mAbs) against human cell surface markers on ice for 30 min. The fluorescent dye-labeled mAbs against human cell surface molecules included anti-CD209, anti-CD14, anti-CD11c, anti-CD40, anti-HLA-DR, anti-CD86, and anti-CD83 (BD Biosciences, Franklin Lakes, NJ, USA or BioLegend, San Diego, CA, USA). In addition, a fixable live/dead stain (Thermo Fisher Scientific) at a dilution of 1:1000 was added to exclude dead cells. After several washes with FACS buffer, cells were resuspended in FACS buffer and analyzed on an Attune Nxt flow cytometer (Thermo Fisher Scientific) with FlowJo v10 software (BD Biosciences). An aliquot of the cells to be analyzed served as controls by using “fluorescent minus-one” to establish gates and determine the frequency of positively stained cells. Ultra-comp beads (Thermo Fisher Scientific) were used as single-stained controls to set up compensation on the flow cytometer.

Plasma stability, mouse = format: in vitro ADME; settings: 37 °C, read-out: Plasma t½, Mouse
Experimental: (§2) The plasma stability assay was carried out on 96-well microtiter plates. The test compounds at 5 µM and the reference compound (propantheline) at 1 µM final concentration were incubated separately at 37 °C with mouse or human plasma for 0, 30, 60, and 240 min. At the end of each incubation time point, 300 μL of the quenching solution (50% acetonitrile, 50% methanol, and 0.05% formic acid) containing the internal standard was added to each well. The incubation plates were sealed, vortexed, and centrifuged at 4 °C for 15 min at 4000 rpm. The supernatant was transferred to fresh plates for LC/MS/MS analysis of the test compounds. The peak area ratios of each test compound over the internal standard were plotted against incubation time, and the t½ was calculated from the curve assuming first-order kinetics.

Plasma stability, human = format: in vitro ADME; settings: 37 °C, read-out: Plasma t½, Human
Experimental: as §2

Atezolizumab: anti-human PD-L1 antibody atezolizumab biosimilar provided by Crownbio [reference compound]
Tumor Reduction vs. Group 1 (vehicle) (MC38-hPD-L1 tumors; Day 11): 53.7% | TV on Day 11 (Median) (MC38-hPD-L1 tumors; n = 10, vehicle 2268): 1050 mm^3

Nc1ncnc2c1ncn2[C@@H]1O[C@@H]2CO[P@@](=O)(S)O[C@@H]3[C@H](O)[C@@H](CO[P@@](=O)(S)O[C@H]2[C@H]1O)O[C@H]3n1cnc2c(N)ncnc21 [ADU-S100]
terminal t½ [1]: 10 to 23 min | half-life at 5 µM [2]: > 480 min | EC50 ([3]; Homo sapiens, Dendritic cell, read-out: EC50 CD83, Immature Dendritic Cells): 8 µM | EC50 ([3]; Homo sapiens, Dendritic cell, read-out: EC50 CD86, Immature Dendritic Cells): 25 µM | Surface expression of CD86 and CD83 (in words) [3]: upregulated the surface expression of CD86 and CD83 | Animals with tumor regression by end of study (subcutaneous CT26 tumors; 25 μg IT, Day 40): 1 of 10 | Delayed Response (TV > 10 and <2000 mm^3) (subcutaneous CT26 tumors; 25 μg IT, n = 10): 40% ^a | Treatment Failure (TV > 2000 mm^3) (subcutaneous CT26 tumors; 25 μg IT, n = 10): 50% ^a | Complete Response (TV < 10 mm^3) (subcutaneous CT26 tumors; 25 μg IT, n = 10, BALB/c, end of study Day 40): 10% ^a | Median Time to Endpoint (subcutaneous CT26 tumors; 25 μg IT, n = 10): 36.5 days | Delayed Response (TV > 10 and <2000 mm^3) (subcutaneous CT26 tumors; 100 μg IT, n = 10): 10% ^b | Median Time to Endpoint (subcutaneous CT26 tumors; 100 μg IT, n = 10): 40.0 days | half-life at 5 µM [4]: > 480 min | EC50 (primary human monocytes; read-out: EC50 CD83, Monocytes): 3.9 µM | EC50 (primary human monocytes; read-out: EC50 CD86, Monocytes): 0.49 µM | half-life at 5 µM (Plasma stability, mouse): > 60 min | half-life at 5 µM (Plasma stability, human): > 60 min

Nc1nc2c(ncn2[C@@H]2O[C@@H]3COP(=O)(O)O[C@H]4[C@@H](O)[C@H](n5cnc6c(N)ncnc65)O[C@@H]4COP(=O)(O)O[C@@H]2[C@@H]3O)c(=O)[nH]1 [2′3′ cGAMP, 2′3′ cyclic guanosine monophosphate–adenosine monophosphate]
Surface expression of CD86 and CD83 (in words) [3]: upregulated the surface expression of CD86 and CD83 | EC50 ([3]; read-out: EC50 CD83, Immature Dendritic Cells): 3 µM | EC50 ([3]; read-out: EC50 CD86, Immature Dendritic Cells): 7 µM | half-life at 5 µM (Plasma stability, mouse): 7.2 min | half-life at 5 µM (Plasma stability, human): 12.8 min
